Source: patent publication US11472778B2, “Hepatitis C virus NS3/4A protease inhibitors” (priority 2017, dated 2022)
Like-named read-outs stand apart in the source and are kept apart here.

Key:
[1] = tested on: HCV replicon R155K variant in Huh7 cells; assay: microbe, parasite or virus in culture; assay type: cell-based, Hepatitis C virus; details: for EC50: Hepatitis C virus, Huh-7, read-out: Replicon EC50 (nM) R155K, Table 9; for Replicon EC50 (Fold change) R155K: Table 9, relative to WT
How it was run: (§1)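 Luciferase signal (RLU) at 96 h post-electroporation served as the replication read-out. Huh7 cells received replicon RNA of a Con1 1b backbone bearing H77 1a NS3, wild-type or site-directed mutant, and were dosed with increasing protease inhibitor concentrations.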

[2] = tested on: HCV replicon D168A variant in Huh7 cells; assay: microbe, parasite or virus in culture; assay type: cell-based, Hepatitis C virus; details: for Replicon EC50 (Fold change) D168A: Table 9, relative to WT; for EC50: Hepatitis C virus, Huh-7, read-out: Replicon EC50 (nM) D168A, Table 9
How it was run: as §1

[3] = tested on: HCV replicon A156T variant in Huh7 cells; assay: microbe, parasite or virus in culture; assay type: cell-based, Hepatitis C virus; details: for EC50: Hepatitis C virus, Huh-7, read-out: Replicon EC50 (nM) A156T, Table 9; for Replicon EC50 (Fold change) A156T: Table 9, relative to WT
How it was run: as §1

[4] = tested on: HCV replicon D168V variant in Huh7 cells; assay: microbe, parasite or virus in culture; assay type: cell-based, Hepatitis C virus; details: for Replicon EC50 (Fold change) D168V: relative to WT
How it was run: as §1

[5] = target: GT1a R155K NS3/4A protease; assay type: biochemical, Hepatitis C virus; details: fold change in Ki, R155K relative to WT
Procedure: (§2) For each assay, 2 nM of NS3/4A protease (GT1a, R155K and D168A) was pre-incubated at room temperature for 1 h with increasing concentration of inhibitors in assay buffer (50 mM Tris, 5% glycerol, 10 mM DTT, 0.6 mM LDAO, and 4% dimethyl sulfoxide, pH 7.5). Inhibition assays were performed in non-binding surface 96-well black half-area plates (Corning) in a reaction volume of 60 μL. […] Three independent data sets were collected for each inhibitor with each protease construct. […] Gibbs free energy of binding was calculated using the following equation: ΔG=RTlnKi

[6] = target: GT1a R155K NS3/4A protease (UniProt P27958, R1181K, species not given); assay type: biochemical, Hepatitis C virus
Procedure: as §2

[7] = tested on: wild-type HCV replicon in Huh7 cells; assay: Cell-based drug susceptibility (replicon) assay, wild-type; details: Hepatitis C virus, Huh-7, Table 9; read-out: Replicon EC50 (nM) WT
How it was run: as §1

[8] = target: T1, wild-type GT1a NS3/4A protease (UniProt P27958); assay type: biochemical, Hepatitis C virus
T1 construct: Ki WT; other: wild-type HCV NS3/4A protease
How it was run: (§3)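 Enzyme (GT1a wild type or D168A mutant, 2 nM) was preincubated with inhibitor dilutions for 1 h at room temperature in pH 7.5 Tris buffer with glycerol, DTT, LDAO and 4% DMSO.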

[9] = target: T2, GT1a D168A NS3/4A protease (UniProt P27958, D1194A, species not given); assay type: biochemical, Hepatitis C virus
T2 construct: rows headed: Ki (nM) D168A; Ki D168A; other: D168A variant
How it was run: as §3

[10] = target: GT1a D168A NS3/4A protease; assay type: biochemical, Hepatitis C virus; details: fold change in Ki, D168A relative to WT
How it was run: as §3

[11] = Hepatitis C virus, Huh-7, read-out: Replicon EC50 (nM) D168V, Table 9
[12] = read-out: Replicon EC50 (nM) D168V, Table 9
[13] = read-out: Ki (nM) R155K, Table 8, linear inhibitors
[14] = read-out: Ki R155K, R155K variant
[15] = read-out: Ki (nM) WT, Table 8, linear inhibitors
[16] = read-out: Ki WT, wild-type HCV NS3/4A protease
[17] = read-out: Ki (nM) D168A, Table 8, linear inhibitors
[18] = read-out: Ki D168A, D168A variant

Row | Compound | EC50 [1] [nM] | Replicon EC50 (Fold change) R155K [1] | Replicon EC50 (Fold change) D168A [2] | EC50 [3] [nM] | Replicon EC50 (Fold change) A156T [3] | EC50 [4, 11] [nM] | Replicon EC50 (Fold change) D168V ([4]; Table 9) | EC50 [4, 12] [nM] | Ki R155K (fold change) [5] | Ki [6, 13] [nM] | Ki [6, 14] [nM] | EC50 [7] [nM] | Ki [8, 15] [nM] | Ki [8, 16] [nM] | Ki [9, 17] [nM] | Ki [9, 18] [nM] | Ki D168A (fold change) [10] | EC50 [2] [nM]
1 | C=C[C@@H]1C[C@]1(NC(=O)[C@@H]1C[C@@H](Oc2nc3cc(OC)ccc3nc2Cl)CN1C(=O)[C@@H](NC(=O)OC(C)(C)C)C(C)(C)C)C(=O)NS(=O)(=O)C1(C)CC1 [Compound 10d, tert-Butyl ((S)-1-((2S4R)-4-((3-chloro-7-methoxyquinoxalin-2-yl)oxy)-2-(((1R,2SD)-1-(((1-methylcyclopropyl)sulfonyl)carbamoyl)-1-vinylcyclopropyl)carbamoyl)pyrrolidin-1-yl)-3,3-dimethyl-1-oxobutan-2-yl)carbamate] | 10 | (1.6) fold | (4.8) fold | 100 | (16) fold | 12 to 38 | (1.9) fold | 12 | 0.7 | 3.8 ± 0.6 | 3.8 ± 0.6 | 6.3 | 6.1 ± 1.1 | 6.1 ± 1.1 | 119 ± 16 | 119 ± 16 | 31 | –
2 | C=C[C@@H]1C[C@]1(NC(=O)[C@@H]1C[C@@H](Oc2nc3cc(OC)ccc3nc2C)CN1C(=O)[C@@H](NC(=O)OC1CCCC1)C(C)(C)C)C(=O)NS(=O)(=O)C1CC1 [Compound 11b, Cyclopentyl ((S)-1-((2S,4R)-2-(((1R,2S)-1-((cyclopropylsulfonyl)carbamoyl)-2-vinylcyclopropyl)carbamoyl)-4-((7-methoxy-3-methylquinoxalin-2-yl)oxy)pyrrolidin-1-yl)-3,3-dimethyl-1-oxobutan-2-yl)carbamate] | 48 | (4.8) fold | (10) fold | 164 | (16) fold | 150 | (15) fold | – | 1.0 | 9.6 ± 0.9 | 9.6 ± 0.9 | 10 | 9.2 ± 0.9 | 9.2 ± 0.9 | 144 ± 23 | 144 ± 23 | 16 | 101
3 | C=C[C@@H]1C[C@]1(NC(=O)[C@@H]1C[C@@H](Oc2nc3cc(OC)ccc3nc2CC)CN1C(=O)[C@@H](NC(=O)OC(C)(C)C)C(C)(C)C)C(=O)NS(=O)(=O)C1CC1 [Compound 3, tert-Butyl ((S)-1-((2S,4R)-2-(((1R,2S)-1-((cyclopropylsulfonyl)carbamoyl)-2-vinylcyclopropyl)carbamoyl)-4-((3-ethyl-7-methoxyquinoxalin-2-yl)oxy)pyrrolidin-1-yl)-3,3-dimethyl-1-oxobutan-2-yl)carbamate] | 50 | (2.1) fold | (>21) fold | 73 | (3.0) fold | > 500 | (>21) fold | – | 0.9 | 17 ± 2.3 | 17 ± 2.3 | 24 | 19 | 19 ± 2.7 | 642 ± 101 | 642 ± 101 | 34 | > 500
4 | C=C[C@@H]1C[C@]1(NC(=O)[C@@H]1C[C@@H](Oc2nc3cc(OC)ccc3nc2Cl)CN1C(=O)[C@@H](NC(=O)OC1CCCC1)C(C)(C)C)C(=O)NS(=O)(=O)C1CC1 [Compound 11d, Cyclopentyl ((S)-1-((2S,4R)-4-((3-chloro-7-methoxyquinoxalin-2-yl)oxy)-2-(((1R,2S)-1-((cyclopropylsulfonyl)carbamoyl)-2-vinylcyclopropyl)carbamoyl)pyrrolidin-1-yl)-3,3-dimethyl-1-oxobutan-2-yl)carbamate] | 40 | (5.4) fold | (6.8) fold | 292 | (40) fold | 54 | (7.3) fold | – | 1.1 | 4.1 ± 0.5 | 4.1 ± 0.5 | 7.4 | 3.8 | 3.8 ± 0.6 | 99 ± 10 | 99 ± 10 | 26 | 50
5 | C=C[C@@H]1C[C@]1(NC(=O)[C@@H]1C[C@@H](Oc2nc3cc(OC)ccc3nc2Cl)CN1C(=O)[C@@H](NC(=O)OC(C)(C)C)C(C)(C)C)C(=O)NS(=O)(=O)C1CC1 [Compound 9d, tert-Butyl ((S)-1-((2S,4R)-4-((3-chloro-7-methoxyquinoxalin-2-yl)oxy)-2-(((1R,2S)-1-((cyclopropylsulfonyl)carbamoyl)-2-vinylcyclopropyl)carbamoyl)pyrrolidin-1-yl)-3,3-dimethyl-1-oxobutan-2-yl)carbamate] | 10 | (1.5) fold | (5.8) fold | 107 | (16) fold | 12 to 38 | (1.8) fold | 12 | 0.3 | 2.2 ± 0.4 | 2.2 ± 0.4 | 6.6 | 7.8 ± 1.1 | 7.8 ± 1.1 | 128 ± 16 | 128 ± 16 | 16 | –
6 | C=C[C@@H]1C[C@]1(NC(=O)[C@@H]1C[C@@H](Oc2nc3cc(OC)ccc3nc2C(F)(F)F)CN1C(=O)[C@@H](NC(=O)OC1CCCC1)C(C)(C)C)C(=O)NS(=O)(=O)C1(C)CC1 [Compound 12e, Cyclopentyl ((S)-1-((2S,4R)-4-((7-methoxy-3-(trifluoromethyl)quinoxalin-2-yl)oxy)-2-(((1R,2S)-1-(((1-methylcyclopropyl)sulfonyl)carbamoyl)-2-vinylcyclopropyl)carbamoyl)pyrrolidin-1-yl)-3,3-dimethyl-1-oxobutan-2-yl)carbamate] | – | – | – | – | – | – | – | – | 1.0 | 22 ± 6.9 | 22 ± 6.9 | – | 22 ± 3.4 | 22 ± 3.4 | 516 ± 61 | 516 ± 61 | 24 | –
7 | C=C[C@@H]1C[C@]1(NC(=O)[C@@H]1C[C@@H](Oc2nc3cc(OC)ccc3nc2Cl)CN1C(=O)[C@@H](NC(=O)OC1CCCC1)C(C)(C)C)C(=O)NS(=O)(=O)C1(C)CC1 [Compound 12d, Cyclopentyl ((S)-1-((2S,4R)-4-((3-chloro-7-methoxyquinoxalin-2-yl)oxy)-2-(((1R,2S)-1-(((1-methylcyclopropyl)sulfonyl)carbamoyl)-2-vinylcyclopropyl)carbamoyl)pyrrolidin-1-yl)-3,3-dimethyl-1-oxobutan-2-yl)carbamate] | 27 | (8.7) fold | (8.1) fold | 163 | (53) fold | 12 to 38 | (7.4) fold | 23 | 1.3 | 5.2 ± 0.8 | 5.2 ± 0.8 | 3.1 | 3.9 | 3.9 ± 0.7 | 51 ± 6 | 51 ± 6 | 13 | –
8 | C=C[C@@H]1C[C@]1(NC(=O)[C@@H]1C[C@@H](Oc2nc3cc(OC)ccc3nc2C(F)(F)F)CN1C(=O)[C@@H](NC(=O)OC(C)(C)C)C(C)(C)C)C(=O)NS(=O)(=O)C1CC1 [Compound 9e, tert-Butyl ((S)-1-((2S,4R)-2-(((1R,2S)-1-((cyclopropylsulfonyl)carbamoyl)-2-vinylcyclopropyl)carbamoyl)-4-((7-methoxy-3-(trifluoromethyl)quinoxalin-2-yl)oxy)pyrrolidin-1-yl)-3,3-dimethyl-1-oxobutan-2-yl)carbamate] | – | – | – | – | – | – | – | – | 0.3 | 24 ± 3.3 | 24 ± 3.3 | – | 87 ± 18 | 87 ± 18 | 723 ± 80 | 723 ± 80 | 8 | –
